Reference: patent US20230174642A1, “AFFINITY-MATURATED ANTI-ASIC1a ANTIBODIES” (SHANGHAITECH UNIVERSITY, priority 2019, published 2023)

T1: ASIC1a (Homo sapiens, UniProt P78348)
T1 construct: expressed in transfected cells
T1 sequence (P78348 1-528): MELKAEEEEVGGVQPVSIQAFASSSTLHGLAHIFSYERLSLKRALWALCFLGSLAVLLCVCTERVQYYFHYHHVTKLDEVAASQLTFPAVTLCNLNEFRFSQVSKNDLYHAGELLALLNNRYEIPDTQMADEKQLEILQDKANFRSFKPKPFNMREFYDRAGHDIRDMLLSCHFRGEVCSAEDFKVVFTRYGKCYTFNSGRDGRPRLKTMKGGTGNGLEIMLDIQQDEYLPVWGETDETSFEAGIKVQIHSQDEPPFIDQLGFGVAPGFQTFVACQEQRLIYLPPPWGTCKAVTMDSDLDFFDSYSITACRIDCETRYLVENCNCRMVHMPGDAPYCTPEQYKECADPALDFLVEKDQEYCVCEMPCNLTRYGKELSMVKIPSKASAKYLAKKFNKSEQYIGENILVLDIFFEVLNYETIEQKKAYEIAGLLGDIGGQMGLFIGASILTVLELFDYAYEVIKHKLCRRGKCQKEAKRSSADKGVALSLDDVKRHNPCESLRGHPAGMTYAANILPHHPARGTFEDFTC

T2: hASIC1a on CHO-K1 cells stably expressing hASIC1a (human, UniProt P78348 1-528)
T2 sequence (looked up): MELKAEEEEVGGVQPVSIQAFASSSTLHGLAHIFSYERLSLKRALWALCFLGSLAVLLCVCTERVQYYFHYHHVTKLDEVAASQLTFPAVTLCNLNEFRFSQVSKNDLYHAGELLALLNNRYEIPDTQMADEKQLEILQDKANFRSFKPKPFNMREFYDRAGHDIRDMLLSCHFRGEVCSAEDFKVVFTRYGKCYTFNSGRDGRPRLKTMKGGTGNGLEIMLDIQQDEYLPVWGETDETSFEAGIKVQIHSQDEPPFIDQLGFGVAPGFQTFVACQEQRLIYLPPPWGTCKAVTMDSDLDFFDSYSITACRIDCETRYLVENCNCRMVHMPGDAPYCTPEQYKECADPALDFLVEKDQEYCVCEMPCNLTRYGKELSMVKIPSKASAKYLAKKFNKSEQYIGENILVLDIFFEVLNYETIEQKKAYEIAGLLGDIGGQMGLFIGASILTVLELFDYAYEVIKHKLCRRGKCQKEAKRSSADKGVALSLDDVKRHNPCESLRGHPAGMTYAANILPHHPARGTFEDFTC


How the values were obtained:
ASIC1a = molecular target: T1, ASIC1a; assay: Patch clamp whole-cell recording of acid-induced hASIC1a currents; format: cell-based; details: 30 μM amiloride, positive control; pH 7.4 to pH 6.0; read-out: inhibition of the acid-induced ASIC1a currents
Protocol: FIGS. 4A-4E show the effect of affinity-matured ASC06-IgG1 derivative antibodies on the hASIC1a currents. Shown are the representative current traces recorded from single CHO-K1 cells stably expressing hASIC1a in the absence or presence of 100 nM ASC06-IgG1 (FIG. 4A) or affinity-matured ASC06-IgG1 versions ASC06-01-IgG1 (FIG. 4B), ASC06-02-IgG1 (FIG. 4C), ASC06-03-IgG1 (FIG. 4D), or ASC06-04-IgG1 (FIG. 4E). Amiloride (30 μM) was used as a positive control. “Wash” represents the recovery of the current after the treatment of 100 nM indicated antibody followed by 15 min infusion of washing solution.
Whether the affinity-matured ASC06-IgG1 derivative antibodies have an effect on the acid-induced, hASIC1a-mediated electrical current in cells was tested. An hASIC1a overexpressing stable cell line was used as a model for these studies. Extracellular pH was decreased from pH 7.4 to pH 6.0 and the amplitudes of the hASIC1a-mediated inward currents were recorded in the whole-cell recording mode in the presence of the affinity-matured ASC06-IgG1 derivative antibodies (FIGS. 4A-4E). The ASIC1a inhibitor amiloride (30 μM) was used as a positive control for the inhibition of ASIC1a currents.

[1] = molecular target: T2, hASIC1a on CHO-K1 cells stably …; assay: cell-based or functional assay

Molecule | inhibition at 30 µM (ASIC1a) [%] | IC50 for the inhibition of ASIC1a currents, FMP assay [1] [nM]
N=C(N)NC(=O)c1nc(Cl)c(N)nc1N [amiloride, reference compound] | > 50 | –
ASC06-05-IgG1 (antibody, V domains shown) VH: QVQLQQSGGGLVQPGGSLRLSCAASGFTFSSYAMSWVRQAPGKGLEWVSAISGSGGSTYYADSVKGRFTISRDNSKNTLYLQMNSLRAEDTAVYYCAKDSYFGRAKGSWGQGTLVTVSS VL: QSALTQPASVSGSPGQSITISCTGTSSDVGAYNYVSWYQQQPGKAPKLMIYGVSNRPSGVSNRFSGSKSGNAASLTISGLQAEDEADYYCSSYTSSSTYVFGTGTKLTVLG | – | 31
